Measurements as given in patent US7098195B2, “Fluorinated glucosamine analogs useful for modulating post-translational glycosylations on cells” (Health Research, Inc., priority 2001, dated 2006).
Read-outs that look alike come from different tables or passages of the source.

Legend:
[1] = test system: L-selectin ligand activity of human CLA+ T-cells; test: Parallel-plate flow chamber, CLA+ T-cell rolling on L-selectin chimera; assay type: cell-based
Experimental: (§1) Tethering and rolling of human T-cells on recombinant human E- and P-selectin-Ig chimera (provided by Dr. Robert Fuhlbrigge, Harvard Medical School) and human L-selectin-Ig (gift from Dr. Ray Camphausen, Wyeth/Genetics Institute, Inc., Cambridge, Mass.) were analyzed in the parallel-plate flow chamber under physiologic shear stress conditions (3). To prepare E- and P-selectin-Ig chimera spots, protein A (300 μg/15 μl 0.1M NaHCO3) was adsorbed to Ten-twenty-nine™ Petri dishes for 2 h at 37° C. Human serum albumin ([…] PBS) then added and incubated for 2 h at 37° C. to block non-specific binding sites. E-selectin-Ig (50 ng/50 μl PBS) or P-selectin-Ig (50 ng/50 μl PBS) solutions was pipetted directly over the pre-existing protein A spots for 18 h at 4° C. To prepare L-selectin-Ig spots, L-selectin-Ig (300 ng/15 μl PBS) or isotype control human IgG (300 ng/15 μl) were adsorbed directly to plastic (non-protein A-coated) for 18 h at 4° C. and blocked in 100% FBS for 2 h at 4° C.
(§2) CLA^+ T-cells or freshly isolated PBL were treated with neuraminidase and metabolic glycosylation inhibitors or with protease (bromelain) as described above, washed twice in HBSS, suspended at 2×10^6/ml in HBSS/10 mM HEPES/2 mM CaCl2 (H/H/Ca^++) and infused into the chamber over selectin chimeras. Protease treatment was performed to control for residual E-selectin activity not attributable to the expression of CLA on a protein scaffold. Cell tethering was permitted at 0.6 dynes/cm^2 for 1 min, then stepwise increments in shear stress every 15 sec were employed to a final shear stress level of 60 dynes/cm^2. The number of cells rolling/viewing field (at 100× magnification) was quantified at each level of shear stress in triplicates for a minimum of three experiments. […] Negative control experiments were performed in parallel, wherein cell binding was examined in H/H adhesion assay medium containing 5 mM EDTA as well as assaying cell binding to human IgG isotype control.
(§3) Utilizing the parallel-plate flow chamber under physiologic shear stress conditions, E-, P- and L-selectin ligand activities of human CLA^+ T-cells treated were analyzed in an identical manner as cells prepared for Western blotting and autoradiography studies.

[2] = test system: E-selectin ligand activity of CLA+ T-lymphocytes; test: Parallel-plate flow chamber, CLA+ T-cell tethering and rolling on E-selectin chimera; assay type: cell-based, human
Experimental: To analyze the affects of 4-F-GlcNAc on the function of CLA on human T-cells, we examined the ability of 4-F-GlcNAc-treated (0.05, 0.1, 0.5 mM for 30 hrs) CLA-+ T-cells cultures to engage with immobilized E- and P-selectin chimera in the parallel-plate flow chamber. As described for flow cytometric analyses (Example 13), cells were first pretreated with neuraminidase to remove terminal sialic acid residues required for HECA-452 reactivity and for E- and P-selectin ligand activity of CLA. This approach allowed for the assessment on de novo synthesized CLA molecules.
as §1, §2, §3

[3] = test system: C57BL6 mice; test: DNFB-induced delayed type hypersensitivity (ear swelling) in mice; assay type: in vivo, mouse
Experimental: Previous studies evaluating the anti-tumor and anti-metastatic effects of fluorinated hexosamine analogs and 3 or 4-F-GlcNAc, specifically, indicate that the dose limiting toxicity was ˜250 mg/kg×6 days and that i.p. administration of these sugar analogs was an efficacious mode of delivery. Thus, in these studies, a maximal dose of 250 mg/kg as well as 100 and […] doses were used in order to make both toxic and efficacy assessments of fluorinated hexosamine analog anti-inflammatory effects. To induce delayed type hypersensitivity (DTH), C57BL6 mice were sensitized on their abdomen on days 0 and 1 with 25 μl of 0.5% 2,4-dinitrofluorobenzene (DNFB) (i.e. hapten) in a 4:1 solution of acetone to olive oil (vehicle). Negative control mice were sensitized with vehicle alone. Mice were then treated from days 0–6 with drug vehicle (0.9% saline), 50 mg/kg 4-F-GlcNAc, 100 mg/kg 4-F-GlcNAc, 250 mg/kg 4-F-GlcNAc or 250 mg/kg GlcNAc (negative sugar control). Hapten-induced inflammation was then promoted on day 6 by challenging the mice with 10 μl of 0.25% DNFB on both sides of the right ear and mice also received 10 μl of vehicle alone on both sides of the left ear as a negative inflammatory control. Ear swelling responses were measured 24 h later on day 7 and subtracted from baseline measurements that were recorded on day 6.
Histological analysis of right ears from mice receiving sensitizing and challenging hapten doses that were treated with saline vehicle control did show the presence of lymphocytic infiltrate and amount of lymphocytic infiltrate corresponded to ear swelling measurements (See FIG. 14 Panel B).

[4] = test system: P-selectin ligand activity of murine Th1 cells; test: Flow chamber analysis of P-selectin binding on murine Th1 cells; assay type: cell-based, mouse
Excerpt: CD4+ splenocytes were isolated from C57BL-6 mice by anti-murine CD4 L3T4 magnetic bead technology (Miltenyi Biotec) according to manufacturer's protocol. […] Culturing murine T helper cells in the presence of murine IL-12 and anti-murine IL-4 produces selectin binding Th1 cells by up-regulating FucTVII (69, 70) and core 2 enzyme (43–45, 71, 72), both critical for selectin ligand synthesis (i.e. decoration of PSGL-1 (67, 68)), and prevents the production of non-selectin binding Th2 cells (67–72). Th1 cells were also generated from mice deficient in α1,3 fucosyltransferase, FucTVII, and served as negative controls (33, 38, 40). Cells were harvested and re-plated at 2×10^6cells/ml on non-Ab coated plastic with murine IL-2 (20 ng/ml) in the presence or absence of murine IL-12 (10 ng/ml) and anti-murine IL-4 moAb 11B11 (10 μg/ml) for 48 h. […] Glycosylation inhibitors were added to cultures on day 6.5 for 30 hr, after first treating cells with neuraminidase (0.1 U/ml for 1 hr at 37° C.) to remove all cell surface terminal sialic acid resides and E and P-selectin ligand activity. Since selectin ligands are dependent on terminal sialic acid (α2,3 N-acetylneuraminic acid) for activity, this approach allowed for analysis of de novo synthesized selectin ligands in the presence of 0.05 mM 4-F-GlcNAc, N-glycan inhibitors, 0.23 mM swainsonine and 0.02 mM tunicamycin, and 1 mM GlcNAc (negative control).

[5] = at 2.0 dynes/cm^2, tunicamycin 0.02 mM, swainsonine 0.23 mM, 4-F-GlcNAc 0.05 mM, BAG 2.0 mM, p<0.01
[6] = 30 hr after neuraminidase, 0.05 mM 4-F-GlcNAc, 0.23 mM swainsonine, 0.02 mM tunicamycin, 1 mM GlcNAc
[7] = 30 h following neuraminidase digestion, drug control

CC(=O)N[C@H]1C(OC(C)=O)O[C@H](COC(C)=O)[C@@H](F)[C@@H]1OC(C)=O (stereo partly drawn) [4-F-GlcNAc, 2-acetamido-2-deoxy-1,3,6-tri-O-acetyl-4-deoxy-4-fluoro-D-glucopyranose]
rolling adhesions on L-selectin chimera [1, 5]: significant reductions
E-selectin ligand activity compared with protease treatment [2]: did not reduce E-selectin ligand activity below that of protease-treatment
difference in cell rolling frequency on E-selectin chimera vs PBS recovery ([2]; 0.05 mM, p<0.001): statistically significant
rolling adhesions on E-selectin chimera [2, 5]: significant reductions
CLA+ T-cell tethering and rolling mediated by E-selectin ([2]; neuraminidase then 0.1 and 0.5 mM for 30 hrs): completely abolished
inflammatory response (ear swelling) ([3]; 50 mg/kg, days 0–6, i.p., p<0.0002): statistically significant diminution
inflammatory response (ear swelling) ([3]; 100 mg/kg, days 0–6, i.p.): completely abrogated
inflammatory response (ear swelling) ([3]; 250 mg/kg, days 0–6, i.p.): completely abrogated
inflammatory responses in FucTVII −/− mice ([3]; FucTVII −/− mice): further reduced
recovery of P-selectin ligand activity of Th1 cells [4, 6]: completely inhibited

CC(=O)N[C@H]1C(O)O[C@H](CO)[C@@H](O)[C@@H]1O (some centres unmarked) [GlcNAc, N-acetylglucosamine]
recovery of L-selectin ligand activity [1, 7]: > 80 % recovery
recovery of E-selectin ligand activity [2, 7]: > 80 % recovery
inflammatory response (ear swelling) ([3]; 250 mg/kg negative sugar control, days 0–6): no anti-inflammatory effect
recovery of P-selectin ligand activity of Th1 cells [4, 6]: no effect

O[C@H]1[C@H]2[C@H](O)CCCN2C[C@H]1O [swainsonine]
rolling adhesions on L-selectin chimera [1]: no effect
rolling adhesions on E-selectin chimera [2]: no effect
recovery of P-selectin ligand activity of Th1 cells [4]: no effect

tunicamycin
rolling adhesions on L-selectin chimera [1]: significant reductions
rolling adhesions on E-selectin chimera [2]: significant reductions
recovery of P-selectin ligand activity of Th1 cells [4]: completely inhibited
